Test results reported in PMC3824154 (Angewandte Chemie (International ed. in English), 2013).

Target: T1, MBP-RebF (Lentzea aerocolonigenes, UniProt Q8KI76)
T1 sequence (Q8KI76 1-170): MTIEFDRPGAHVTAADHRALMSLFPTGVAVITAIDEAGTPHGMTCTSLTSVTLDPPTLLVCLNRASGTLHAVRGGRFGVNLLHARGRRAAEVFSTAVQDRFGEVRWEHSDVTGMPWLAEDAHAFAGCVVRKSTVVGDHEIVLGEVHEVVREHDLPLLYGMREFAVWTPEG
Test: FAD reduction activity
Type: biochemical

With `Cc1cc2nc3c(=O)[nH]c(=O)nc-3n(C[C@H](O)[C@H](O)[C@H](O)COP(=O)(O)OP(=O)(O)OC[C@H]3O[C@@H](n4cnc5c(N)ncnc54)[C@H](O)[C@@H]3O)c2cc1C` [FAD] the “FAD reduction activity (turnover)” value (NADH as electron donor) was “retained high activity for the NAD-dependent reduction of FAD to FADH2”.

For `NC(=O)C1=CN([C@@H]2O[C@H](COP(=O)(O)OP(=O)(O)OC[C@H]3O[C@@H](n4cnc5c(N)ncnc54)[C@H](O)[C@@H]3O)[C@@H](O)[C@H]2O)C=CC1` [NADH], the “FAD reduction activity (turnover)” value (FAD as electron acceptor) was “MBP-RebF, which uses NADH to reduce FAD to FADH2”.
